pIC50: −log10 of the molar value.
Experiments:
Acetylcholinesterase [1] = biological target: T1, Acetylcholinesterase (Bos taurus, UniProt P23795)
T1 sequence (P23795 whole entry): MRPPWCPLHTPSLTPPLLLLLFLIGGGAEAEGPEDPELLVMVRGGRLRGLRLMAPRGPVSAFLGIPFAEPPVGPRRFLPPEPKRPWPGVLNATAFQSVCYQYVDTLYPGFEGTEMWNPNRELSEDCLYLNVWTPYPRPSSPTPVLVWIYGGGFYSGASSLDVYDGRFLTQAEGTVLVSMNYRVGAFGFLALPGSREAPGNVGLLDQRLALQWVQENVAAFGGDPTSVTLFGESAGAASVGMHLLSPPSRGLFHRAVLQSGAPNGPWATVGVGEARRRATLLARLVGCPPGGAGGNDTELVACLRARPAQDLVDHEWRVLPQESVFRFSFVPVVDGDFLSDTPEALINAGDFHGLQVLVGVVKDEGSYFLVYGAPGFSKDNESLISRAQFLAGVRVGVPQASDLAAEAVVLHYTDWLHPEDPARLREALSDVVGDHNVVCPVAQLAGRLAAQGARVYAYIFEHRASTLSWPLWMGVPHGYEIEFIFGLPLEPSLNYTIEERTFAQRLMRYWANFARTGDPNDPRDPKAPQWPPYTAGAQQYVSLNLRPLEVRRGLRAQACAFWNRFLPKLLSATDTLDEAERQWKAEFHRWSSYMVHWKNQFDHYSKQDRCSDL
Description: Compound was evaluated for the inhibition of acetylcholinesterase of bovine erythrocytes

Cholinesterase = Cholinesterase (Homo sapiens, UniProt P06276)
Description: Inhibition of butyrylcholinesterase (BChE) in human serum

Acetylcholinesterase [2] = biological target: Acetylcholinesterase (Homo sapiens, UniProt P22303)
Description: Inhibition of acetylcholinesterase isolated from Human erythrocytes.

Acetylcholinesterase [3] = biological target: T1, Acetylcholinesterase; remark: listed apart in the source
Description: Compound was evaluated for the inhibition of acetylcholinesterase activity from bovine erythrocytes after 0 minutes of incubation

Acetylcholinesterase [4] = biological target: T1, Acetylcholinesterase; remark: listed apart in the source
[5] = biological target: Cholinesterases; ACHE & BCHE (Homo sapiens) (UniProt P06276+P22303); test: Ratio between IC50 of human BChE and human AChE; format: protein assay
[6] = Compound was evaluated for the antagonism index 10 uM; NR is No Reversion.; format: functional
[7] = Compound was evaluated for the antagonism index at 1 uM; format: functional
[8] = Compound was evaluated for the antagonism index 10 uM; NR ismNo reversion; format: functional

Sequence of Cholinesterase (P06276 whole entry): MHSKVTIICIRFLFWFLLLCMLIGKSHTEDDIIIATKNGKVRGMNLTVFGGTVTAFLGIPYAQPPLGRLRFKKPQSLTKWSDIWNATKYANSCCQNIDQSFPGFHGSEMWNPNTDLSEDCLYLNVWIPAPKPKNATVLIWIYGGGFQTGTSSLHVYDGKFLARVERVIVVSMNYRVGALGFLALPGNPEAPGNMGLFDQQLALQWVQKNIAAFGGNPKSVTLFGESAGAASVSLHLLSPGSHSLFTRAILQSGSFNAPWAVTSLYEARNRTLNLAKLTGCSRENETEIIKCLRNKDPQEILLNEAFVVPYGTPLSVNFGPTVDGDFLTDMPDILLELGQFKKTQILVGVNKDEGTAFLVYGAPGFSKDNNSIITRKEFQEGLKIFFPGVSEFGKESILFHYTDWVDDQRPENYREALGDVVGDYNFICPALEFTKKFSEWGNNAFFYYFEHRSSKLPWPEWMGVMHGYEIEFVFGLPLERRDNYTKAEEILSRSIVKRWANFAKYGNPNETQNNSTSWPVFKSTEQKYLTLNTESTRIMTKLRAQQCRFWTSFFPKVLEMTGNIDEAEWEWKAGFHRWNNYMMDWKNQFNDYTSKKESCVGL
Sequence of Cholinesterases; ACHE & BCHE (Homo sapiens) (P06276 whole entry, looked up): as the sequence (P06276 whole entry) above
Sequence of Cholinesterases; ACHE & BCHE (Homo sapiens) (P22303 whole entry, looked up): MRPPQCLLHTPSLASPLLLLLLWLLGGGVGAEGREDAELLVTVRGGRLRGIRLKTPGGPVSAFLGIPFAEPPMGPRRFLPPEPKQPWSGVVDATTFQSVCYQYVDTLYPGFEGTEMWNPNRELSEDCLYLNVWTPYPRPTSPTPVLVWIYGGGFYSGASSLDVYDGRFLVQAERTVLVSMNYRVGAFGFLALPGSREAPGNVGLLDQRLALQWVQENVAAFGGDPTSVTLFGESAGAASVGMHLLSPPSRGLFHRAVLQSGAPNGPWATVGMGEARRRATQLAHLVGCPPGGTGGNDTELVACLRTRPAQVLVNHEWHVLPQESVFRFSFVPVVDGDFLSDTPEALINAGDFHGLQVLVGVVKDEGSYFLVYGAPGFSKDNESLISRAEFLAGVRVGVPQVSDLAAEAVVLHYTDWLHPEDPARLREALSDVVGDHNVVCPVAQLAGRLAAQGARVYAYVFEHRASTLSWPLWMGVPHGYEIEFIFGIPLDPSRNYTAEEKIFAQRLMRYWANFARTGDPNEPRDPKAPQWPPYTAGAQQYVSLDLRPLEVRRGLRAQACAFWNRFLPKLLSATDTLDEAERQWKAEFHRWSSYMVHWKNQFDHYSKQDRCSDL
Sequence of Acetylcholinesterase (Homo sapiens, UniProt P22303) (P22303 whole entry): as the sequence (P22303 whole entry, looked up) above

SMILES	pIC50 (Acetylcholinesterase [1])	pIC50 (Cholinesterase)	pIC50 (Acetylcholinesterase [2])	further results
CC1=CC2Cc3nc4cc(Cl)ccc4c(N)c3C(C1)C2 (racemic; (+)) [HUPRINE Y]	7.19	6.82	–	–
CCC1=CC2Cc3nc4cc(Cl)ccc4c(N)c3[C@@H](C1)C2 (stereo in doubt) [HUPRINE X]	8.56	7.80	9.12	pIC50 (Acetylcholinesterase [3]): 8.48; pIC50 (Acetylcholinesterase [4]): 9.64
CC1=CC2Cc3nc4cc(F)cc(F)c4c(N)c3C(C1)C2 (stereo not drawn)	–	6.02	8.66	Ratio [5]: 438
CC1=C[C@@H]2Cc3nc4cc(F)ccc4c(N)c3[C@H](C1)C2	–	–	8.34	Ratio [5]: 43
C/C=C1\[C@H]2C=C(C)C[C@]1(N)c1ccc(=O)[nH]c1C2 [HUPERZINE A]	–	< 5.00	–	–
CCC1=CC2Cc3nc4cc(C)ccc4c(N)c3C(C1)C2 (stereo not drawn)	–	–	–	NR [6]: No reversion
CCC1=CC2Cc3nc4cc(Cl)ccc4c(N)c3[C@@H](C1)C2 (mixture of isomers; (+)) [HUPRINE X]	6.40	7.23	7.64	pIC50 (Acetylcholinesterase [3]): 6.62; pIC50 (Acetylcholinesterase [4]): 6.46
CC1=CC2Cc3nc4cc(Cl)ccc4c(N)c3C(C1)C2 (racemic; (-)) [HUPRINE Y]	8.94	6.61	–	pIC50 (Acetylcholinesterase [3]): 8.52; pIC50 (Acetylcholinesterase [4]): 10.61
CC1=CC2Cc3nc4cc(Cl)ccc4c(N)c3C(C1)C2 (racemic; (+))	–	–	–	inhibition [7]: 22.1%
CCC1=CC2Cc3nc4cc(Cl)ccc4c(N)c3[C@@H](C1)C2 (mixture of isomers; (-)) [HUPRINE X]	8.89	6.80	9.49	pIC50 (Acetylcholinesterase [3]): 8.64; pIC50 (Acetylcholinesterase [4]): 10.17
CC1=CC2Cc3nc4cc(Cl)ccc4c(N)c3C(C1)C2 (stereo in doubt) [HUPRINE Y]	8.37	6.63	–	pIC50 (Acetylcholinesterase [3]): 8.51; pIC50 (Acetylcholinesterase [4]): 9.19
CCC1=CC2Cc3nc4cc(F)cc(F)c4c(N)c3C(C1)C2 (stereo not drawn)	8.58	6.71	8.75	–
CCC1=CC2Cc3nc4cc(Cl)cc(Cl)c4c(N)c3C(C1)C2 (stereo not drawn)	7.40	5.92	8.86	–
CCC1=CC2Cc3nc4cc(C)cc(C)c4c(N)c3C(C1)C2 (stereo not drawn)	8.44	7.49	8.30	Ratio [5]: 6.57
CCC1=CC2Cc3nc4cc(Cl)ccc4c(N)c3[C@@H](C1)C2 (mixture of isomers; (+))	–	–	–	NR [8]: No reversion
CC1=CC2Cc3nc4cccc(F)c4c(N)c3C(C1)C2 (stereo not drawn)	–	–	7.45	Ratio [5]: 15.3
CCC1=CC2Cc3nc4cccc(Cl)c4c(N)c3C(C1)C2 (stereo not drawn)	–	6.48	7.93	–
